Reference: article PMC11984407, “A natural small molecule isoginkgetin alleviates hypercholesterolemia and atherosclerosis by targeting ACLY” (Theranostics, 2025)

Tests used:
ACLY = target: T1, ACLY (Mesocricetus auratus, UniProt A0A1U7RF50); assay: ACLY activity in vivo, hamster liver extracts (MDH-coupled method)
T1 construct: from tissue; host or cells: liver of hamsters and of Ldlr-/- hamsters dosed with ISOGK
T1 sequence (A0A1U7RF50 1-1101): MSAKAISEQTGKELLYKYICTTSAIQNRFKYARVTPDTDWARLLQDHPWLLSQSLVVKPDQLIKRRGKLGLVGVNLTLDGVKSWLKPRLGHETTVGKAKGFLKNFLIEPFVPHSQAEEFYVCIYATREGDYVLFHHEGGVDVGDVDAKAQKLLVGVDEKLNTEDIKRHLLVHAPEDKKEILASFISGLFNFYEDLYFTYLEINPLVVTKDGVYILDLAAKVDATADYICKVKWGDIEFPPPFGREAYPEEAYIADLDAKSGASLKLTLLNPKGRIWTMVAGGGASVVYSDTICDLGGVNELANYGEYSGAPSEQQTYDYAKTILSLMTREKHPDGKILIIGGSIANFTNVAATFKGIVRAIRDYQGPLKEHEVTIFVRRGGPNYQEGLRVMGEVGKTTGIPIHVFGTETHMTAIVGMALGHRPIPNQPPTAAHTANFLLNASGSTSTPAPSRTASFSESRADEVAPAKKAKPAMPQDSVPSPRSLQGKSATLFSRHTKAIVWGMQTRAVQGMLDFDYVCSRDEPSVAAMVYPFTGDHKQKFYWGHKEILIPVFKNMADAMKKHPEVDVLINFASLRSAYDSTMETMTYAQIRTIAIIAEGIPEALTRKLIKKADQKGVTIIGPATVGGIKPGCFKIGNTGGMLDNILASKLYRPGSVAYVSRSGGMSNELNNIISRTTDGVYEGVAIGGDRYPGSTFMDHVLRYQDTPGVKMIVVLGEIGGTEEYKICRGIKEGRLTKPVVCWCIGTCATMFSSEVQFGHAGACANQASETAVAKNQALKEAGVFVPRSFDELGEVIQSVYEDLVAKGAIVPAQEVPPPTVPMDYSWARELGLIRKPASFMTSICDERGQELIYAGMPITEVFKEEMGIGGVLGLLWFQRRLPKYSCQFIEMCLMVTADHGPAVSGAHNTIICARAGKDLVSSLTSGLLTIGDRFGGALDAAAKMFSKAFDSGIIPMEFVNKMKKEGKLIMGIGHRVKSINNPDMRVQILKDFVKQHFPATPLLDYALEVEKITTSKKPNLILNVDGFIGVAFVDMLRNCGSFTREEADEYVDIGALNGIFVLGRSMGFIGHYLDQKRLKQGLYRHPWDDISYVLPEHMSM
Procedure: The activity of the ACLY enzyme was assayed utilizing malate dehydrogenase (MDH)-coupled method kits (BC4240, Solarbio, Beijing, China). In summary, liver extracts were incubated in a reaction buffer comprising 20 mM citrate, 10 mM MgCl₂, 10 mM DTT, 0.5 U/ml of malic dehydrogenase, 0.33 mM CoASH, and 0.14 mM NADH, both in the presence and absence of 5 mM ATP. The quantity of oxaloacetate produced by ACLY catalysis was determined by measuring the alteration in absorbance at 340 nm, which corresponds to the depletion of NADH during the MDH-catalyzed reaction. After accounting for background variations in absorbance in the absence of ATP, the relative ACL activities were computed by normalizing the data to the weight of the liver tissue.

[1] = test system: primary mouse hepatocytes; assay: Nile Red staining of primary hepatocytes from high fat diet mice; assay type: cell-based; conditions: varying concentrations, 12 h, hepatocytes from 16-week high fat diet mice
Excerpt: Primary hepatocytes were isolated from male C57BL/6J mice fed a high-fat diet (HFD, 60 kcal% fat, 20 kcal% protein, 20 kcal% carbohydrate; D12492; RESEARCH DIETS, New Brunswick, NJ, USA) for 16 weeks according to our previous study. At the end of experiment, the mice were initially anaesthetized and subsequently subjected to perfusion with Liver Perfusion Medium (17701-038; Thermo Fisher Scientific, Waltham, MA, USA) via the portal vein, followed by Liver Digestion Medium (17701-034, Thermo Fisher Scientific, Waltham, MA, USA). Following perfusion, the liver was extracted and passed through a 100 μm cell strainer. The resulting cells were subjected to centrifugation at 50×g for 1 min, after which cells were incubated in DMEM supplemented with 10% FBS (F05-001-B160216; Bio-One Biotechnology, Guangzhou, China) and 1% penicillin-streptomycin (15140-122; Gibco by Invitrogen, Carlsbad, CA, USA) at 37 °C.
For the Nile Red staining procedure, primary mouse hepatocytes were treated with IOSGK at varying concentrations for a period of 12 h. Subsequently, the cells were fixed with 4% paraformaldehyde (PFA) and stained with Nile Red (N1142, Invitrogen, Carlsbad, CA, USA). The intracellular accumulation of lipids was visualized and quantified using a laser scanning confocal microscope (TCS SP8; Leica, Wetzlar, Germany).

[2] = test system: LDLR and ACLY protein levels; assay: Western blot of LDLR and ACLY in Huh-7 cells; assay type: cell-based, human; conditions: Huh-7, various concentrations
Procedure: Western blotting was performed as previously described. In brief, whole-cell lysates from cultured cells and animal tissue were prepared using 1× sample buffer, followed by boiling at 95 °C for 10 min. Subsequently, SDS-PAGE was employed to separate the samples, which were then transferred onto a nitrocellulose membrane (Pall, NY, USA). Subsequently, the membrane was incubated in a blocking buffer for one h at room temperature. Following the removal of the blocking buffer, the blots were incubated with primary antibodies (1:1,000 dilution) at 4 °C overnight. The membrane was washed thrice for 10 min each, using 1× Tris-buffered saline with 0.1% Tween-20 (TBST). Subsequently, the membranes were incubated with IRDye® 680RD Goat anti-Mouse IgG (H + L) or IRDye® 800CW Goat anti-Rabbit IgG (H + L) (1:10,000 dilution, LI-COR, Lincoln, Nebraska, USA) at room temperature for 1 h. Visualization of the blots was carried out using the Li-COR CLx infrared imaging system. GAPDH (60004-1-Ig, Proteintech, Chicago, IL, USA), ACLY (67166-1-Ig, Proteintech, Chicago, IL, USA), LDLR (10785-1-AP, Proteintech, Chicago, IL, USA), β-Actin (66009-1-Ig, Proteintech, Chicago, IL, USA), AMPK (10929-2-AP, Proteintech, Chicago, IL, USA), p-AMPK^T172 (2535, Cell Signaling Technology, Danvers, MA, USA).

For COc1ccc(-c2cc(=O)c3c(O)cc(O)c(-c4cc(-c5cc(=O)c6c(O)cc(O)cc6o5)ccc4OC)c3o2)cc1 [ISOGK, Isoginkgetin], the “ACLY enzyme activity in liver tissue” value (ACLY; Ldlr-/- hamsters) was “significantly inhibits ACLY activity”, the “ACLY enzyme activity in liver tissue” value (ACLY; high cholesterol diet hamsters, 4 weeks) was “significantly inhibits ACLY activity” and the “hepatic lipid levels (Nile Red staining)” value [1] was “reduced hepatic lipid levels”. For the same molecule, the “LDLR and ACLY protein levels” value [2] was “no significant change in the LDLR and ACLY protein levels”.
